Test results reported in patent US6441205B1, “Synthetic precursors to 4-(P-methoxyphenyl)-2-amino-butane” (Council of Scientific and Industrial Research, priority 2000, dated 2002).
Read-outs that look alike come from different tables or passages of the source.

Experiments:
[1] = exposure to sun light; cited from earlier work
[2] = tested on: 4th instar larvae of Spilarctia obliqua; assay: feeding deterrency (antifeedant) bioassay, diet-mix method; assay type: in vivo, Spilarctia obliqua (Bihar hairy caterpillar); details: for % feeding deterrency: diet-mix, fecal pellets after 24 hours; for antifeedant activity (in words): bioassay studies
Experimental: (§1) The compound having formula (1) was evaluated as feeding deterrent and growth inhibitor against 4th in star larvae of spilarctia obliqua (Bihar hairy caterpillar). This insect attacks more than twenty cash crops like urd, moong, arhar, mint and coleus etc. Several synthetic insecticides like quinalphos, Phosphamidon and synthetic pyrethroids are commercially used to manage this insect pest. But, the insect is developing resistance towards some of these insecticides. Therefore, it has now become imperative to search for new ecologically safe, environmentally sound and non-toxic chemicals to manage this pest.
(§2) With compound having formula (1) insect feeding deterrency and growth inhibition was tested by diet-mix method. In this method, 4-(p-methoxyphenyl)-2-aminobutane the compound having formula (1) was dissolved in acetone to make various concentrations ranging from 1000 to 5000 ppm. Test solution was mixed in the artificial diet of the insect so that each gram of diet contained 60-300 μg of the compound (1). 4th in star larva (newly molted) starved four hours, was weighed and released on treated artificial diet in thirty replications. In control, only solvent acetone was mixed and azadirachtin at 1000 ppm concentration was taken as standard for feeding bioassay. After 24 hours, number of fecal pellets produced were counted, and the data were analyzed for % feeding deterrency. Some experiments were continued for next 24 hours and weights of the larva were taken daily. After 3 days, experiment was discontinued and weight gain or loss was analyzed for % growth inhibition.
Diflubenzuron at 5 ppm was taken as a standard in case of growth inhibitory assay. The test result of compound having formula (1) in terms of its feeding deterrency and growth inhibition as compared to standards azadirachtin and diflubenzuron are given in table 1.

[3] = tested on: 4th instar larvae of Spilarctia obliqua; assay: growth inhibition bioassay, diet-mix method; assay type: in vivo, Spilarctia obliqua (Bihar hairy caterpillar); details: bioassay studies
Experimental: as §1
as §2, with “In control, only solvent acetone was mixed and azadirachtin at 1000 ppm concentration was taken as standard for feeding bioassay.” left out, “Some experiments were continued for next 24 hours and weights of the larva were taken daily.” left out, “inhibition. […]” for “inhibition.”

[4] = sensitivity to light (UV and sunlight); assay type: physicochemical; details: both UV and sunlight

SMILES	sensitivity to light [1]	% feeding deterrency ([2]; 1000 ppm) [%]	growth inhibition activity (in words) [3]	% feeding deterrency ([2]; 2000 ppm) [%]	% feeding deterrency ([2]; 3000 ppm) [%]	% feeding deterrency ([2]; 4000 ppm) [%]	% feeding deterrency ([2]; 5000 ppm) [%]	antifeedant activity (in words) [2]	sensitivity to light [4]
C/C=C(\C)C(=O)O[C@H]1C[C@@H](OC(C)=O)[C@@]2(C(=O)OC)CO[C@H]3[C@@H](O)[C@@](C)([C@]45O[C@@]4(C)[C@H]4C[C@@H]5O[C@@H]5OC=C[C@@]54O)[C@H]4[C@]1(CO[C@]4(O)C(=O)OC)[C@@H]32 [Azadirachtin, reference compound]	photosensitive	100.0	–	–	–	–	–	–	–
COc1ccc(CCC(C)N)cc1 (stereo not drawn) [Compound 1, 4-(p-methoxyphenyl)-2-amino butane]	–	32.0	significant activity	40.0	64.0	82.0	100.0	significant activity	not sensitive to light
CC(O)CCc1ccc(O)cc1 (stereo not drawn) [compound (2), 4-(p-hydroxyphenyl)-butan-2-ol]	–	–	not found to be active	–	–	–	–	not found to be active	–
